Key:
[1] = tested on: RXF393 renal cancer cells; assay: CellTiter-Glo luminescent cell viability assay; type: cell-based; conditions: Homo sapiens, RXF 393; RXF393, 72 hours, GraphPad
Method: (§1) Cells were seeded in 96-well plates at a density of 5×10^3 cells per well. 20 μL of CellTiter-Glo® Reagent was added directly to the wells, following the manufacturer's protocol, and bioluminescence signal was determined using an IVIS imaging system.
(§2) To begin establishing the potential of CB002 as a candidate therapeutic agent, its therapeutic index was determined by treating cancer (DLD-1, SW480, and RXF393) and normal (WI38 and MRC5) cell lines with concentrations of CB002 ranging from 0-500 μM for a period of 72 hours and assessing cell viability by the CellTiter-Glo® luminescence assay (see, FIG. 2). CB002 has a significant therapeutic index among the cells tested.

[2] = biological target: T1, mutant p53 in DLD-1 cells (Homo sapiens, UniProt P04637, S241F); assay: cycloheximide chase assay; type: cell-based; conditions: 24 hours treatment, then 100 μg/mL cycloheximide, 0-10 hours
T1 construct: endogenous in cells; host or cells: DLD-1 colorectal cancer cells
Method: (§3) As mutant p53 can acquire a gain-of-function activity, targeting mutant p53 for degradation has been explored as a therapeutic strategy. To investigate the capability of CB002 to impact on mutant p53 protein expression, Western blot analysis was used. […] To confirm these findings, a cycloheximide chase assay was performed. Cells were treated with vehicle control or CB002 for a period of 24 hours. Subsequently, 100 μg/mL cycloheximide was added to the wells and protein lysates were collected at different time points between 0-10 hours. […] Referring to FIG. 6, experiments with SW480 cells (Panels A and B) and analysis of DLD-1 colorectal cancer cells (Panel C) are shown. Cells were treated for a 24 hour period with DMSO, CB002 or positive control followed by 100 μg/mL of cycloheximide addition, and protein stability was evaluated in a time course ranging from 0-10 hours. Histone deacetylase inhibitor, SAHA and Hsp90 inhibitor Geldanamycin (1 μM GA) were used as positive controls.

[3] = biological target: T2, mutant p53 in SW480 cells (Homo sapiens, UniProt P04637, P309S/R273H); assay: cycloheximide chase assay; type: cell-based; conditions: 24 hours treatment, then 100 μg/mL cycloheximide, 0-10 hours
T2 construct: endogenous in cells; host or cells: SW480 colorectal cancer cells
Method: as §3

[4] = tested on: cancer (DLD-1, SW480, and RXF393) cell lines; assay: CellTiter-Glo cell viability, panel of cancer cell lines (summary); type: cell-based; conditions: Homo sapiens; 72 hours
Method: as §1, §2

[5] = tested on: autophagic vacuoles in DLD-1 cells; assay: CYTO-ID autophagy detection kit; type: cell-based, human; conditions: 50 μM, 24 hours, versus DMSO
[6] = tested on: normal (WI38 and MRC5) cell lines; assay: CellTiter-Glo cell viability, normal cell lines (summary); type: cell-based; conditions: Homo sapiens; 72 hours
Method: as §1, §2

[7] = biological target: T3, R175H mutant p53 in HCT116 R175H p53 cells (Homo sapiens, UniProt P04637, R175H); assay: cycloheximide chase assay; type: cell-based; conditions: 100 μM, 24 hours, then cycloheximide
T3 construct: V5 (only from the vector name pLenti6/V5); host or cells: HCT116 p53-/- cells, lentivirus infection, blasticidin-selected pooled clones
Method: as §3
Referring to FIG. 7, CB002 reduced the protein expression of the exogenous R175H mutant in HCT116 p53-null cells and not the HCT116 wild-type p53 cells (Panel A). HCT116 R175H p53 cells were treated for 24 hours with DMSO or CB002 followed by 100 μg/mL cycloheximide addition. Protein stability was evaluated from 0-10 hours (Panel B). […]

cell cycle G2 checkpoint = assay: propidium iodide staining cell cycle analysis; type: cell-based; conditions: 24 hour treatment, alone and with etoposide
Method: Referring to FIG. 22 (panels A-F), propidium iodide staining cell cycle analysis for 24 hour treatment with DMSO (panel A), CB002 (panel B), CB002 and etoposide (panel C), etoposide (panel D), caffeine (panel E), and caffeine and etoposixe (panel F). […] The deregulation of the G2 checkpoint as a mechanism by caffeine prevents […] tumor cells that are treated with DNA damaging drugs, such as etoposide, from arresting to have time to repair, and thus sensitizes cancer cells to cell death.

[8] = tested on: p53 reporter (PG13-luc) in HCT116 p53-null cells; assay: luciferase-based p53-reporter activity assay; type: cell-based, human; conditions: 3 and 24 hours
Method: (§4) High-throughput screening was performed using a non-invasive bioluminescence imaging in human colorectal cancer cell lines that stably express a p53-regulated luciferase reporter. Cells were seeded in 96-well plates (Greiner Bio-One) at a density of 1×10^4 cells per well. p53 transcriptional activity was imaged using an IVIS imaging system for a period of 3-4 hours.
(§5) Cell-based screening of p53 transcriptional activity for small molecule CB002 was accomplished using noninvasive bioluminescence imaging in human colorectal cancer cell lines SW480, DLD-1, DLD-1 p73^−/−, HCT116, and HCT116 p53^−/−. These cell lines stably express a p53 reporter, PG13-luc. Cells were seeded in opaque 96-well culture at a density of 5×10^4 cells/well. The cells were treated with CB002 at ranging doses with DMSO controls. Bioluminescence in cells was imaged for p53 transcriptional activity at 2 hours and 24 hours using IVIS imaging system (Xenogen).
(§6) In order to identify small molecules that could restore the p53 signaling pathway, 50,000 small molecules from the Chembridge Library were screened using a firefly luciferase human p53 reporter assay system. SW480 colorectal cancer cells that stably express the human p53 reporter were treated with compounds at various concentrations from 0-100 μM for 2 and 24 hours. […] To further validate the effects of CB002, the screening was expanded by testing effects on p53-dependent reporter activity in DLD-1, wild-type HCT116, and p53-null colorectal cancer HCT116 cell lines. […] Referring to FIG. 1, representative images of luciferase-based p53-reporter activity assays are shown at 3 hours (Panel A). Quantification of the luciferase-based p53-reporter activity assays in three different cell lines incubated from 3-24 hours with CB002 are shown (Panels B-D). p53-reporter activity assays are shown at 2 hours for HCT116 p53-null cells (Panel E).

[9] = tested on: p53 reporter (PG13-luc) in wild-type HCT116 cells; assay: luciferase-based p53-reporter activity assay; type: cell-based, human; conditions: 3 and 24 hours
Method: as §4, §5, §6

[10] = tested on: p53 reporter (PG13-luc) in DLD-1 cells; assay: luciferase-based p53-reporter activity assay; type: cell-based, human; conditions: 3 and 24 hours
Method: as §4, §5, §6

[11] = tested on: Noxa in 8226 bortezomib resistant multiple myeloma cell line; assay: Western blot of Noxa; type: cell-based; conditions: 25 μM Analog 4, 100 μM Analog 11
Method: Referring to FIG. 20 (panel C), 1×10^6 cells/well were seeded in a 12-well plate. 8226 parental and resistant multiple myeloma cell lines were treated with 100 μM CB002, 25 μM Analog 4, or 100 μM Analog 11.

SMILES | IC50 [1] [µM] | mutant p53 stability [2] | mutant p53 stability [3] | IC50 [4] [µM] | autophagic vacuole-specific staining [5] | IC50 [6] [µM] | stability of mutant p53 [7] | effect on cell cycle G2 checkpoint (cell cycle G2 checkpoint) | p53 reporter activity [8] | p53 reporter activity [9] | p53 reporter activity [10] | Noxa expression [11]
Cn1c(=O)c2[nH]c(Nc3ccccc3)nc2n(C)c1=O [CB002, 8-anilino-1,3-dimethyl-3,7-dihydro-1H-purine-2,6-dione] | 400 | did not affect mutant p53 stability | did not affect mutant p53 stability | 96 to 400 | increase in autophagic vacuole-specific staining | ~650 | decreased the stability of mutant p53 | does not appear to deregulate the G2 cell cycle checkpoint | induced in a dose-dependent manner | induced in a dose-dependent manner | induced in a dose-dependent manner | 
Cn1c(=O)c2c(nc(Nc3ccccc3)n2C)n(C)c1=O [Analog 11, 8-anilino-1,3,7-trimethyl-3,7-dihydro-1Hpurine-2,6-dione] |  |  |  |  |  |  |  |  |  |  |  | able to induce Noxa expression

Reference: US11203598B2, “Compounds for repressing cancer cell growth” (Institute For Cancer Research, priority 2018, dated 2021)
